Test results as given in patent publication US20260001928A1 (CORTERIA PHARMACEUTICALS, priority 2022, published 2026).
pEC50: −log10 of the molar value. *1 amine or outer side, *2 acyl side, *3 side chain or, on linkers, in order; H or OH if unused. Where a SMILES comes first, the peptide text is derived from it. Side-chain parts run from the residue outwards. [ ]: non-standard residue; d: D form. The star is where a group is joined. C20 diacid = O=C(O)CCCCCCCCCCCCCCCCCCC(=O)*; γGlu = O=C(O)[C@H](CCC(=O)[*:2])N[*:1]; NMeI = CC[C@H](C)[C@H](NC)C(=O)O; Aib = CC(C)(N)C(=O)O

Columns and labels:
human CRF2a receptor = molecular target: T1, human CRF2a receptor (Homo sapiens, UniProt Q13324); test: Activity at human CRF2a receptor, cAMP functional assay in TeloHEAC cells; format: cell-based; conditions: TeloHEAC cells stably expressing human CRF2a receptor, relative to urocortin 2 (100 nM = 100%)
T1 construct: expressed in transfected cells; host or cells: TeloHEAC cells
T1 sequence (Q13324 1-411): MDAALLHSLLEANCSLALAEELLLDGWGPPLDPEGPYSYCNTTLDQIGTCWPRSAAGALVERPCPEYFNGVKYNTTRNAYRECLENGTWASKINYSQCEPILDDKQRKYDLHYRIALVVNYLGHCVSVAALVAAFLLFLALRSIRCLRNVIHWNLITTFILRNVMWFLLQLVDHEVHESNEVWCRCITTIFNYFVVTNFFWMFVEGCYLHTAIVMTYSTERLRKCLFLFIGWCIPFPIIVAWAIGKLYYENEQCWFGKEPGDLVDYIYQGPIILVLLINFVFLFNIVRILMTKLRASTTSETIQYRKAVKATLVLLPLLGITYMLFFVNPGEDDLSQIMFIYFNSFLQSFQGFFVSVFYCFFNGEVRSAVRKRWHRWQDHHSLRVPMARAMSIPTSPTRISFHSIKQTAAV
Summary of the method: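 TeloHEAC cells stably expressing human CRF2a (10000 cells/well) were treated with 16-point 1:2 compound dilutions in HBSS/20 mM HEPES with IBMX for 30 min at 37° C. cAMP was read by HTRF (665/620 nm ratio). EC50 was the concentration giving 50% activation, with 100 nM urocortin 2 set as 100%.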

CFR1R receptor = molecular target: T2, CFR1R receptor (Homo sapiens, UniProt P34998); test: Activity at anti-target CFR1R receptor, cAMP assay in CRF1R-overexpression CHO-K1 cells; format: cell-based; conditions: 100% = Sauvagine at 100 nM
T2 construct: host or cells: CHO-K1 (clone 2)
T2 sequence (P34998 24-415): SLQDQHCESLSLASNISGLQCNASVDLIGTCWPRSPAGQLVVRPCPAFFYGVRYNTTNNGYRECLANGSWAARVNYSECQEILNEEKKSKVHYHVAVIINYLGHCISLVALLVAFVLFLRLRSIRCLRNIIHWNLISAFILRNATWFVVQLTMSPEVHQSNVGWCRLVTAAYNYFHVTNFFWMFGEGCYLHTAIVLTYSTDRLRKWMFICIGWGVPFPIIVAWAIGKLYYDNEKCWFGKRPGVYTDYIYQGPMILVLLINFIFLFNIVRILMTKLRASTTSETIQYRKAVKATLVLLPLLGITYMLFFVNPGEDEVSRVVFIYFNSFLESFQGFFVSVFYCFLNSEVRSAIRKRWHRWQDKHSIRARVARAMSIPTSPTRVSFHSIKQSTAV
Summary of the method: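 Uses frozen stocks of CHO-K1 clone 2 cells overexpressing human CRF1R, plated at 4000 cells/well final, with cAMP measured by the same protocol as the TeloHAEC line. Full-activation control: 100 nM Sauvagine.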

[1] = In vitro plasma stability, human plasma; format: in vitro ADME; set-up: dose or concentration left out as unconfirmed; conditions: Human PLM, 37° C.
[2] = In vitro plasma stability, rat plasma; format: in vitro ADME; set-up: remaining at 2 h: dose or concentration left out as unconfirmed; conditions: male, Sprague Dawley, plasma; Rat PLM, 37° C.
[3] = In vitro subcutaneous tissue supernatant (SCts) stability and metabolite identification, rat; format: in vitro ADME; set-up: remaining at 2 h: dose or concentration left out as unconfirmed; conditions: male, Sprague Dawley; rat subcutaneous tissue supernatant (SCts), 37° C, 2 h
[4] = Pharmacokinetics in male Sprague Dawley rats after subcutaneous administration; format: in vivo; conditions: plasma, rat, SC, 0.1 mg/kg
[5] = as above; format: in vivo; conditions: plasma, rat

- pEC50 (human CRF2a receptor): 9.96
- Emax (% I) (CFR1R receptor): 24 % I
- pEC50 (CFR1R receptor; cAMP): < 6.60
- remaining at 2 h [1]: 99%
- remaining at 2 h [2]: 109%
- remaining at 2 h [3]: 71%
- AUC(0-t) [4]: 4120 ng·h/mL
- Cmax [4]: 115 ng/mL
- AUC(0-t) ([5]; IV, 0.05 mg/kg): 6740 ng·h/mL
- half-life ([5]; IV, 0.05 mg/kg): 11 h
- Tmax ([5]; SC, 0.1 mg/kg): 24 h
Structure (SMILES): CC[C@H](C)[C@H](NC)C(=O)N[C@H](C(=O)N[C@@H](CC(C)C)C(=O)N[C@@H](CO)C(=O)N[C@@H](CC(C)C)C(=O)N[C@@H](CC(=O)O)C(=O)N[C@@H](C(=O)N1CCC[C@H]1C(=O)N[C@H](C(=O)N[C@@H](CCCCN)C(=O)N[C@@H](CC(C)C)C(=O)N[C@@H](CCCCNC(=O)CC[C@H](NC(=O)CCCCCCCCCCCCCCCCCCC(=O)O)C(=O)O)C(=O)N[C@@H](CCCCN)C(=O)N[C@H](C(=O)N[C@@H](CC(C)C)C(=O)N[C@@H](CC(C)C)C(=O)N[C@@H](CCC(=O)O)C(=O)N[C@@H](CCC(N)=O)C(=O)N[C@@H](CCC(=O)O)C(=O)N[C@@H](CCCCN)C(=O)N[C@@H](CCC(N)=O)C(=O)N[C@@H](CCCCN)C(=O)N[C@@H](CCC(=O)O)C(=O)N[C@@H](CCC(N)=O)C(=O)N[C@@H](CCCNC(=N)N)C(=O)N[C@@H](CCC(=O)O)C(=O)N[C@@H](CCC(N)=O)C(=O)N[C@@H](C)C(=O)N[C@@H](CCC(=O)O)C(=O)N[C@H](C(=O)N[C@@H](CC(N)=O)C(=O)NC(C)(C)C(=O)N[C@@H](CCC(N)=O)C(=O)N[C@H](C(=O)N[C@@H](CC(C)C)C(=O)N[C@@H](C)C(=O)N[C@@H](CCC(N)=O)C(=O)N[C@H](C(N)=O)C(C)C)[C@@H](C)CC)[C@@H](C)O)[C@@H](C)CC)[C@@H](C)CC)C(C)C)C(C)C [compound 218] (H-[NMeI]VLSLD[dV]PIKLK([γGlu-C20 diacid])KILLEQEKQKEQREQAETN[Aib]QILAQV-NH2)
